This is an account of results in patent EP0162545A2, “Enhanced bioconversion processes” (BETZ EUROPE, INC., priority 1984, dated 1985).

Like-named read-outs stand apart in the source and are kept apart here.

In series [1] the test system is Klebsiella pneumoniae. As to the kind of experiment: microbe, parasite or virus in culture. It counts as cell-based. The method, then: (§1) The first series of experiments involved the measurement of the amount of C02 evolved from aerobically growing cultures of the representative organism Klebsiella in the presence and absence of uncoupling agents. The known uncouplers 2, 4 dinitrophenol (DNP) and carbonyl cyanide m-chlorophenyl hydrazone (CCCP) were tested along with bis (tricholoromethyl) sulfone (TCMS) and beta-bromo-beta-nitrostyrene (BNS). It can be seen from the data that CCCP caused large increases in C02 evolution over the untreated controls at all concentrations used, with the largest increase (29%) at 5 µg/mL (24.4 uM). […] Bacterial counts also reflected the lack of uncoupling activity. […] Largest increase in C02 blowoff came at 50 ppm (32%). BNS gave a mixed pattern as opposed to those of DNP and CCCP. […] Even at 10 µg/mL, the bacterial count was reduced ~ 50% while still giving greater C02 blowoff than control cultures.
The procedure utilized to perform the first series of experiments was as follows: • Sealed vials containing 8 mL of minimal salts medium (Composition: K2HPO4-39, KH2PO4-lg, MgSO4-0.2g, (NN4)2SO4^-1g, D-glucose-5g (optional) in 1 liter. Autoclave and adjust pH to 6.8) lacking any carbon source were each injected with 1 mL of a suspension of Klebsiella pneumoniae. (Klebsiella was grown overnight, shaken at 37°C, in minimal salts medium containing glucose to a heavy cell suspension. The cells were centrifuged at 10,000 g and resuspended to a turbidity of 150 Klett units [Klett-Summerson photometer, #42 blue filter) in minimal salts medium [MSM], no glucose. These cells were again centrifuged, and resuspended in MSM at 1/10 the volume used previously. This 10X cell suspension was used as the standard inoculum for the vials.) The vials were- simultaneously injected with 1 mL of a 1 µ Ci/mL solution of ^14C-U-D glucose and the appropriate concentration of material to be tested. The compounds tested were fed at concentrations of […]. Controls received no test material and all vials were shaken during the course of the experiments at 37°C. Vials were read for C02 blowoff at the times indicated on the appropriate Tables. Standard bacterial counts were done on each vial after the end of each experimental series. [formula] [formula] [formula] [formula]

For series [2], the system named is Klebsiella pneumoniae. The series can be described thus: Standard bacterial counts on the CO2 blowoff vials, first series. It is filed as cell-based. The method, then: as §1
The procedure utilized to perform the first series of experiments was as follows: • Sealed vials containing 8 mL of minimal salts medium (Composition: K2HPO4-39, KH2PO4-lg, MgSO4-0.2g, (NN4)2SO4^-1g, D-glucose-5g (optional) in 1 liter. Autoclave and adjust pH to 6.8) lacking any carbon source were each injected with 1 mL of a suspension of Klebsiella pneumoniae. […] Vials were read for C02 blowoff at the times indicated on the appropriate Tables. […]

Series [3] concerns Klebsiella. As to the kind of experiment: microbe, parasite or virus in culture. It is filed as cell-based. As to conditions: Klebsiella, read-out: increase in C02 blowoff. The method, then:
These patterns were the results of Klebsiella cultures having been grown on glucose (^14C-label). In nature, and in waste treatment facilities, many organic carbon compounds, both simple and complex, would be available for degradation. The known uncouplers and BNS were tested for their ability to increase C02 evolution from cultures exposed to the common substrates lactate, glycine, glycerol, and a denatured protein mixture. […] This was expected in the case of glycine but it was thought that a more complex protein might be degraded and portions used for some energyproduction. It was hoped that these compounds might be a more representative group (more abundant in waste treatment) than simple sugars for determining the extent of activity of BNS. […] Lactate, a common intermediate in microbial metabolism, and a compound which would normally be used as an oxidizable substrate for running the cytochrome chain, gave a more representative response. BNS treated cultures gave increased C02 blowoff (an increase as high as 130% at 5 µg/mL) as did both known uncouplers. […] When glycerol was used as the labeled substrate, BNS treated cultures gave increased C02 at concentrations up to 5 µg/mL.
The procedure used for determining the CO2 evolution was similar to the procedure described previously. Cells having been grown overnight in MSM and glucose were centrifuged and resuspended in MSM + glucose (cold) and used as inoculum. No other cold carbon source (unlabeled) was added. ^14C-labeled substrates (lactate, glycerol, etc.) obtained from New England Nuclear were used and supplied the radiolabeled carbon for the detection of ^14CO2. BNS was utilized in concentrations of 0.5 - 10 µg/mL. Fixed concentrations of 5 µg/mL CCCP and DNP were included for comparative purposes. The following data were obtained in these experiments.

Series [4] deals with Saccharomyces cerevisiae. The series can be described thus: Yeast-alcohol batch fermentation with uncoupler dosing. As to conditions: 2.0 ppm CCCP. It counts as cell-based. How it is done:
Saccharomyces cerevisiae (Institute of Marine Sciences, U. Of Miami Culture Collection) was used in the following fermentation medium: 1% glucose, 13.4 g/1 yeast nitrogen Base (BBL, Cockeysville, MD), 0.5 g/1 sodium thioglycollate. pH was 5.68, temperature 33°C, agitation 8.5/10 on Fisher Versamix stirplate. CCCP was dosed at 2.0 mg/l.
Reaction vessel was a 3.0 liter working volume fermenter jar - New Brunswick Scientific. Temperature control was held by recirculation of a 33°C hot water bath through the reactor heating coils by a Little Giant Model 1 submergible pump (Little Giant Pump Co., Oklahoma City, OK).
Glucose and biomass determinations were made by the previously mentioned techniques. Ethanol determinations was by the alcohol dehydrogenase method 331-UV (Sigma Chemical Co., St. Louis, MO). Reactors were run for approximately 150 hours with sampling times varying throughout the experiment.

In series [5] the test system is E. coli K12 ATCC 25404. As to the kind of experiment: Batch culture biomass yield and glucose removal. It is filed as cell-based, Escherichia coli. The method, then: Biomass determinations were by Millipore Filtration using Millipore type H.A. 0.45 µ filters. Samples were centrifuged @ 15,000 x for 10 min., supernatant was filtered through a dried and preweighed filter. The centrifuged pellet was then vortexed in 2 mL of D.I. water and filtered also. Samples were then dried overnight @ 105°C and re-weighed. Biomass was the weight of the dried filter less the tared filter weight.
Glucose determinations were carried out on the centrifuged reactor sample supernatants using glucose enzymatic assay (hexokinase and glucose 6-phosphate dehydrogenase) UV-15 Sigma Chemical Co., St. Louis, MO. (Assay set-up pamphlet accompanies kit). Spectrophotometric measurements were run on a Zeiss PM-6 Spektralphotometer, Carl Zeiss, 7082 Oberkochen, West Germany.
Escherichia coli K12 ATCC 25404 was grown to 175 K.U. (after 48 hours) on 10 g/1 dextrose, 75 mL/1 25x VBE, 5 mL/1 trace mixture. Ten mL of this culture was then used as seed for 300 mL of media of the same composition and dosed with varying concentrations of CCCP, myristic acid and salicylanilide.
Initial and 72 hour measurements for glucose and biomass were run by the previously described methods.

[6] abbreviates: Escherichia coli, ATCC25404, 72 h, read-out: drop in biomass yield.

Turning to `O=[N+]([O-])c1ccc(O)c([N+](=O)[O-])c1` [DNP, 2, 4 dinitrophenol, reference compound], the activation at 50 ppm in series [1] (Klebsiella pneumoniae, read-out: Largest increase in C02 blowoff) is 32%. Besides, the minimal effective concentration in series [1] (Klebsiella pneumoniae, read-out: concentrations causing significant increases in C02 blowoff) is greater than 5 µg/mL. Besides, in series [2] (even at 50 ppm), the “toxic effects (bacterial counts)” value is given as “no toxic effects”. For the same molecule, the activation at 5 µg/mL in series [3] was determined as 83%.
`N#CC(C#N)=NNc1cccc(Cl)c1` [CCCP, carbonyl cyanide m-chlorophenyl hydrazone]: in series [4], the “g ETOH formed hr. max.” value is 0.45; the “g ETOH formed hr. max., change vs Control” value is reported as “+41.6%”; the “g glucose consumed/hr. max.” value was determined as 0.39; the “g glucose consumed/hr. max., change vs Control” value was “+88%”. Further, in series [4] (f = final), the “g cells mole glucosef” value is 6.59; the “g cells mole glucosef, change vs Control” value is reported as -44.1%; the “mole ETOH/Mole Glucosef g cells” value was found to be 4.02; the “mole ETOH/Mole Glucosef g cells, change vs Control” value is reported as “+105.1%”. In addition, in series [4] (f = final), the “moles ETOH/ mole glucosef*” value is reported as 1.39 and the “moles ETOH/ mole glucosef*, change vs Control” value is on record as “+9.4%”. Further, the activation at 5 µg/mL in series [1] (Klebsiella pneumoniae, 5 µg/mL (24.4 uM), 14C-glucose, read-out: largest increase in C02 evolution over the untreated controls) was 29%. Besides, the bacterial counts result in series [2] (50 µg/mL) was “the same as the control levels”. Further, in series [3] (14C-lactate as labeled substrate, 5 µg/mL), the activation at 5 µg/mL was determined as 151%. The molecule also returned a glucose removal efficiency in series [5] (0.4 ppm, batch, 72 hour) of 100%. Besides, the “carbon (glucose) removal efficiency” value in series [5] (1.0 ppm, batch, 72 hour) came out at 98.2%. In series [5] (1.9 ppm, batch, 72 hour), the “drop of glucose removal efficiency from control” value was 4.8% and the glucose removal efficiency came to 95.2%. Further, in series [5] (setting [6]), the inhibition of growth at 0.4 ppm turned out to be 14.6%, the inhibition of growth at 1 ppm was determined as 28% and the inhibition of growth at 1.9 ppm is 42.7%.
Regarding `O=S(=O)(C(Cl)(Cl)Cl)C(Cl)(Cl)Cl` [TCMS, bis (tricholoromethyl) sulfone], the “uncoupling property (C02 evolution)” value in series [1] (all concentrations, 14C-glucose) was “no uncoupling property”.
As to `O=C(Nc1ccccc1)c1ccccc1O` [Salicylanilide, salicylanilide], the glucose removal efficiency in series [5] (50.5 ppm, batch, 72 hour) is given as 99.7%. The inhibition of growth at 50.5 ppm in series [5] (Escherichia coli, ATCC25404, 50.5 ppm, batch, 72 hour, read-out: drop in biomass yield) was no more than 40.2%.
Turning to `CCCCCCCCCCCCCC(=O)O` [Myristic acid, myristic acid], the inhibition of growth at 25 ppm in series [5] (Escherichia coli, ATCC25404, 25 ppm, batch, 72 hour, read-out: reduction in biomass yield) amounted to 19.5%. Also, the “inhibitory effects on glucose removal” value in series [5] (up to 25 ppm, batch, 72 hour) is given as “no inhibitory effects”.
